Data from patent US20140128357A1, “METHODS OF PRODUCING AND USING BRASSINOSTEROIDS TO PROMOTE GROWTH, REPAIR AND MAINTENANCE OF SKELETAL MUSCLE AND SKIN” (Rutgers University, priority 2010, published 2014).
Marks after values point to notes of the source that are not given here.

What was measured:
[1] = system: TNF-α, TGF-β and ICAM-1 mRNA in wounds; experiment: Cytokine and chemokine mRNA in wound tissue, qPCR; assay type: in vivo; conditions: day 10 post-wounding, 10 μg/mouse topically
Experimental: Cutaneous would healing is characterized by an initial inflammatory response. To evaluate the effect of brassinosteroids on inflammation in wound healing, mRNA levels of proinflammatory cytokines TNF-α and TGF-β and an adhesion chemokine ICAM-1 were measured in the wound tissue of control and treated mice on day 10 post-wounding and treatment with HB, positive control (CGS-21680), or negative control (vehicle).
Total RNA was extracted from fibroblasts using Trizol (Invitrogen, Carlsbad, Calif.). RNA was quantified spectrophotometrically by absorbance measurements at 260 and 280 nm using the NanoDrop reader (NanoDrop Technologies, Wilmington, Del.). Quality of RNA was assessed by gel electrophoresis. RNA was then treated with DnaseI (Invitrogen, Carlsbad, Calif.) to remove traces of DNA contamination and the cDNAs were synthesized with 2.5 μg of RNA using Stratascript reverse transcriptase (Stratagene, Santa Clara, Calif.) according to the manufacturers' protocols. Quantitative PCR was performed in duplicate essentially as described previously (Komarnytsky et al., Int. J. Obes. 35: 236-43, 2011) using the following gene-specific primers (IDT, Coralville, Iowa) selected using the Primer Express 2.0 software (Applied Biosystems, Foster City, Calif.): β-actin, forward primer 5′-GGGAAATCGTGCGTGACATT-3′ (SEQ ID NO: 5), and reverse primer 5′-GCG GCA GTG GCC ATC TC-3′ (SEQ ID NO: 6). Target gene expression of the housekeeping gene β-actin was assigned a value of 1. Samples were subjected to a melting curve analysis to confirm the amplification specificity. The relative change in the […] with respect to the endogenous control gene was determined using 2ΔΔCT method (Winer et al., Anal. Biochem. 270: 41-9, 1999).

[2] = system: cutaneous wound in C57BL/6J mice; experiment: Mouse cutaneous injury model of wound healing; assay type: in vivo; conditions: 10 μg/mouse/day topically for 10 days
Experimental: Under volatile anesthesia (5% isoflurane to effect), the shoulder and back region of each animal was shaved. A sharp punch (ID 6 mm) over their lumbar spine was applied to remove the skin, including panniculus carnosus and adherent tissues. Test substances were administered topically (TOP), immediately following cutaneous injury, once daily for 10 consecutive days. […] Wounds were traced onto clear plastic sheets and were measured by use of an ImageJ program (rsbweb.nih.gov/ij/), online from the National Institutes of Health (NIH). ImageJ is a public domain, Java-based image processing program developed at the NIH. Time to wound closure was estimated by comparing the area of the wound undergoing treatment to the areas of the wound undergoing control treatments. The percent closure of the wound (%) was calculated, and wound half-closure time (the time at which 50% of the cutaneous wound is closed, CT50) was analyzed by linear regression using Graph-Prism (Graph Software USA). At the end of experiment (10 days after the induction of the wound), animals were euthanized by CO2 gas inhalation. Blood was collected by heart puncture. Wound tissue and muscle were collected for immunohistochemical analyses and wound healing factor assays. HB increased the percent of wound closure in vivo in a mouse model of wound closure (FIG. 13). […] Twenty seven six-week-old male C57BL/6J mice, obtained from the Jackson Laboratory (Bar Harbor, Me.), were housed in individual chambers in a room maintained at a constant temperature with 12 h light-dark cycle. Mice had free access to food and water. Mice were allowed to adapt to new conditions for seven days and handling the mice was performed daily during this time to reduce the stress of physical manipulation. Mice were randomized into groups (n=9) according to body weight one day prior to dosing. Under volatile anesthesia (5% isoflurane to effect), the shoulder and back region of each animal was shaved. A sharp punch (ID 6 mm) over lumbar spine was applied to remove the skin including panniculus carnosus and adherent tissues. […] Pharmacol. 77: 1117-1124, 2009) as a positive control) was administered topically, immediately following cutaneous injury, and then daily for 10 days. To investigate the kinetics of wound healing, wound size was photographed and measured every two days with ImageJ software (rsbweb.nih.gov/ij/). […] The percent closure of the wound (%) was calculated, and time at which 50% of the cutaneous wound was closed (CT50) was analyzed by linear regression. […] Wound sizes were photographed and measured every 2 days for 10 days. Wound closure (%) relative to day 1 was determined every 2 days, and CT50 was calculated by linear regression. […]

[3] = system: elastin mRNA in human neonatal dermal fibroblasts (HNDF); experiment: Elastin gene expression in human dermal fibroblasts, qPCR; assay type: cell-based; conditions: 16 h
Experimental: Human neonatal dermal fibroblasts (HNDF) were maintained in DMEM+10% FBS and were kept in a humidified 37° C. incubator with 5% CO2. Cells were plated at a density of 1×10^4 cells per well in a 24-well plate and incubated for 24 h, or until 100% confluency was reached. Subsequently, the media was removed and cells were washed with 500 μL PBS twice to remove detached cells or cell debris. HNDF were then treated for 16 h as follows: DMEM only, retinoic Acid 5 μM, retinoic acid 10 μM, Homocastasterone 5 μM and Homocastasterone 10 μM.
RNA was extracted from HNDF using Trizol reagent (Invitrogen) following manufacturer instructions. RNA was quantified spectrophotometrically by absorbance measurements at 260 nm and 280 nm using the NanoDrop system (NanoDrop Technologies, Wilmington, Del.). Quality of RNA was assessed by separation in gel-electrophoresis. To remove any traces of DNA contamination, RNA was then treated with Dnase I (Invitrogen) following the manufacturer guidelines. Complementary DNAs (cDNAs) were synthesized using 3.0 μg of RNA for each sample using Applied Biosystems High Capacity cDNA Reverse Transcription Kit following the manufacturer's protocol.
Quantitative RT-PCR (qPCR) amplifications were carried out in triplicate on an ABI 7300 Real-Time Detection System in a total volume of 25 μl containing 12.5 μl Brilliant SYBR® Green PCR master mix (Applied Biosystems), 5 μl of the 1:25 diluted cDNA, 0.5 μl of 6 μM gene-specific primers (IDT, Coralville, Iowa) and […] PCR-grade water. Primers were synthesized by Integrated DNA Technologies, Inc. (Coralville, Iowa, USA) as follows: β-actin, forward primer 5′-ACGTTGCTATCCAGGCTGTGCTAT-3′ (SEQ ID NO: 1), reverse primer 5′-CTCGGTGAGGATCTTCATGAGGTAGT-3′ (SEQ ID NO: 2); elastin, forward primer 5′-AAGCAGCAGCAAAGTTCGGT-3′ (SEQ ID NO: 3), and reverse primer 5′-ACTAAGCCTGCAGCAGCTCCATA-3′ (SEQ ID NO: 4). qPCR amplifications were performed on the 7300 Real Time PCR System (A&B Applied Biosystems) using 1 cycle at 50° C. for 2 min, 1 cycle at 95° C. for 10 min, followed by 40 cycles of 15 s at 95° C. and 1 min at 60° C. The dissociation curve was completed with one cycle of 15 s at 95° C., 1 min at 60° C., and 15 s of 95° C. No RT (NRT) and no template control (NTC) were included in each experiment as quality control steps. Target mRNA expression was analyzed using the ΔΔCt method and normalized with respect to the expression of the β-actin housekeeping gene. Cells treated with DMEM only (negative control) served as the calibrator sample in this study, and a value of 1.0 was assigned to the target gene expression of the calibrator sample. All samples were run in triplicate. A p value of 0.001 was considered to be significant.

[4] = system: AKT (Ser473) phosphorylation in L6 myotubes; experiment: AKT (Ser473) phosphorylation, Western blot; assay type: cell-based, rat
Experimental: In some aspects, Western blot analyses were carried out. Fully differentiated L6 myotubes were cultured as described above, and whole cell extracts were prepared in ice-cold RIPA buffer supplemented with 10 mM sodium fluoride, 2 mM sodium orthovanadate, 1 mM PMSF, and protease inhibitor cocktail (Sigma) and centrifuged at 12,000 g for 20 min at 4° C. Equal amounts of protein (50 μg) from the supernatants were separated on 10% SDS polyacrylamide gels and blotted onto the nitrocellulose membrane. Western blot detection was carried out with monoclonal phospho-AKT (Ser473) antibodies according to the manufacturer's instructions (Cell Signaling Technology, Danvers, Mass.). After being washed, the blots were incubated with an anti-rabbit peroxidase-labeled secondary antibody and visualized using ECL Western Blotting Detection Reagent (GE Healthcare, Piscataway, N.J.). After being stripped, the same blots were probed with total AKT antibodies to serve as loading controls.

L6 rat myotubes = experiment: Protein synthesis, [3H]-phenylalanine incorporation in myotubes; assay type: cell-based; conditions: IGF-1 6.5 nM positive control, 4 h
Experimental: In some aspects, cell culture experiments were carried out. Rat L6 skeletal muscle cell line CRL-1458 was obtained from ATCC (Manassas, Va.). Myoblasts were routinely maintained in Dulbecco's modified Eagle's medium (DMEM) containing 10% FBS and 0.1% penicillin-streptomycin at 37° C. and 5% CO2. Cells were subcultured into 24-well plates for protein synthesis, degradation, and cell viability studies and into 6-well plates for Western blot analyses (Greiner Bio One, Monroe, N.C.). Once cells reached 90% confluence, differentiation was induced by lowering the serum concentration to 2%, and medium was changed every 2 days. After 7-9 days of culture the myoblasts had fused into multinucleated myotubes (Mandel et al., Nature 251:618-620, 1974). NIH 3T3 murine embryonic fibroblast cell line (ATCC #CCL-92) was maintained in DMEM and 10% FBS at 37° C. in 5% CO2, and passaged every 3-4 days.
In various aspects, protein synthesis is measured to determine the effect of brassinosteroid on a particular protein. All known methods for measuring protein synthesis are included in the methods of the disclosure. In brassinosteroid dose response studies, fully differentiated myotubes were washed with serum-free DMEM and treated in triplicate with vehicle (0.1% ethanol), increasing concentrations of HB, or 6.5 nM of insulin-like growth factor-1 (IGF-1) as a positive control. Compounds were added to serum-free medium containing 0.5 μCi/mL [^3H]-phenylalanine and incubated for 4 h. For the HB time course study, fully differentiated myotubes were treated with 3 μM HB for 1-24 h using the same culture conditions. The incubation was stopped by placing cells on ice, discarding the medium, and washing the cells extensively with ice-cold PBS to remove the non-incorporated radiolabel. Proteins were precipitated with 5% trichloroacetic acid and dissolved in 0.5N NaOH (Montgomery et al., Methods Cell. Sci. 24:123-129, 2002). Specific radioactivity of protein-bound phenylalanine was quantified using liquid scintillation counter LS 6500 (Beckman Coulter, Fullerton, Calif.) and normalized to mg of total protein determined by BCA protein assay (Pierce Biotechnology, Rockford, Ill.).
The bioactivity of HB and its analogs was evaluated by measuring increases in protein synthesis in the L6 rat skeletal muscle cells in vitro. Cells were incubated for 4 h with [^3H]-phenylalanine and treated in triplicate with vehicle (0.1% ethanol) or test compound (10 μM), and protein synthesis was measured as incorporation of [^3H]-phenylalanine into protein normalized by total protein (Table 3). Under these conditions, both HB and (22S,23S)-homocastasterone increased protein synthesis by 37.2±5.9% (p<0.001) and 41.0±2.7% (p<0.001), respectively. This protein synthesis increase compared favorably to the biological activity of IGF-1 at 6.5 nM (42.5±4.5%, p<0.001) that served as a positive control in this assay. Removal of the 2α-hydroxyl group and fluorination at C-3 in the A ring (compound IDs 3-4 in Table 3) led to about a 50% decrease in bioactivity (24.6±5.3%, p<0.01 and 22.5±2.7%, p<0.01, respectively) compared to the positive control. However, there was still an increase in protein synthesis. […] Modifications in the side chain (compound IDs 7-9 in Table 3) abolished the activity.

With `CCNC(=O)[C@H]1O[C@@H](n2cnc3c(N)nc(NCCc4ccc(CCC(=O)O)cc4)nc32)[C@H](O)[C@@H]1O` [CGS-21680, reference compound] the “ICAM-1 mRNA in wound tissue” value [1] was “no effect”, the “TGF-β mRNA in wound tissue” value [1] was “no effect” and the “TNF-α mRNA in wound tissue” value [1] was “remarkable suppression”. For the same compound, the “CT50, time at which 50% of the cutaneous wound is closed” value [2] was 6.2 ± 0.4 days.

For `CC1=C(/C=C/C(C)=C/C=C/C(C)=C/C(=O)O)C(C)(C)CCC1` [Retinoic Acid, reference compound], the “Increase in elastin mRNA levels (-fold over control)” value ([3]; 5 μM) was 2.9** fold and the “Increase in elastin mRNA levels (-fold over control)” value ([3]; 10 μM) was 2.7** fold.

“IGF-1: Insulin-like growth factor 1, positive control for protein synthesis” was tested, and the “time to AKT phosphorylation” value [4] was ≤ 10 min and the “Protein synthesis (% increase over control)” value (L6 rat myotubes) was 42.5±4.5%.
